This note sets out measurements from ChEMBL document CHEMBL4346710, “Discovery of 7H-pyrrolo[2,3-d]pyrimidine derivatives as selective covalent irreversible inhibitors of interleukin-2-inducible T-cell kinase (Itk)” (Eur J Med Chem, 2019).

Experiment [1] deals with T1, Tyrosine-protein kinase ITK/TSK (Homo sapiens) (UniProt Q08881).
T1 sequence (whole entry): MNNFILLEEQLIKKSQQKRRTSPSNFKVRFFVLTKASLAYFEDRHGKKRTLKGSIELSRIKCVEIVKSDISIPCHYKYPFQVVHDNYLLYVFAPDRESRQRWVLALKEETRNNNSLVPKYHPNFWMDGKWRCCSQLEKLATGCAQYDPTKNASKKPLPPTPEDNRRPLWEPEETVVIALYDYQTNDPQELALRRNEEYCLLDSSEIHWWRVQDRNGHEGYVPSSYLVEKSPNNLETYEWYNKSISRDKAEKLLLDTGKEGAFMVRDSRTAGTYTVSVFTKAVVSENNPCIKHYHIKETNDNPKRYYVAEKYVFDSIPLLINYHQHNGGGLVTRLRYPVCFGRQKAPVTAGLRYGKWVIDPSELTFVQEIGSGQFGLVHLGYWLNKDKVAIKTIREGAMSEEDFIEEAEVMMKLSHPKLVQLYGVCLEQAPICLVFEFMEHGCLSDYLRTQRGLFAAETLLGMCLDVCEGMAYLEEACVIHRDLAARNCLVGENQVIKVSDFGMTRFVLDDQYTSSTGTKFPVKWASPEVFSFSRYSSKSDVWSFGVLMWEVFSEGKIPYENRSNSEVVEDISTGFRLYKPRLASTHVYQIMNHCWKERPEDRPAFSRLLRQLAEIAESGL
In words: Inhibition of recombinant full-length human GST-tagged ITK cytoplasmic domain expressed in baculovirus expression system assessed as enzyme residual activity at 0.4 uM using fluorophore-labeled tyrosine-1 peptide as substrate incubated for 60 mins by Z'-LYTE assay relative to control.

Experiment [2] deals with CCRF-CEM. In words: Induction of apoptosis in human CCRF-CEM cells assessed as upregulation of cleaved PARP at 1 to 5 uM incubated for 24 hrs by Western blot analysis. The experiment is classed as functional, cell-based. (In general: In western blotting, separated proteins are transferred to a membrane and probed.)

Each structure is given as a SMILES string. Activity calls are given as the source filed them. No cut-off for these calls is given here.

As to `C=CC(=O)N1CCC(Oc2nc(Nc3ccc(N4CCOCC4)cc3)nc3[nH]cc(-c4cncc(NC)n4)c23)CC1`, the Activity in experiment [1] amounted to 1%. The result in experiment [2] was Active.
